The structures appear in SMILES notation. ≈ marks a conversion by molar mass, not a printed value.

Assay [1] has as its system Mycobacterium tuberculosis. Description: Inhibition of Mycobacterium tuberculosis Lipy assessed as pomegranate oil TAG lipolysis at 20 times molar excess of inhibitor concentration related to 1 mole of enzyme incubated for 30 mins by microtitre plate assay.
For assay [2], the system named is Mycobacterium tuberculosis. Description: Inhibition of Mycobacterium tuberculosis Lipy incubated for 30 mins by UV spectrophotometric analysis.
Assay [3] relates to Mycobacterium tuberculosis. The assay can be described thus: Inhibition of Mycobacterium tuberculosis Lipy assessed as pomegranate oil TAG lipolysis at 4 times molar excess of inhibitor concentration related to 1 mole of enzyme incubated for 30 mins by microtitre plate assay.
A short description of assay [4]: Inhibition of Mycobacterium tuberculosis Cut6.
The test system of assay [5] is RAW264.7. Description: Cytotoxicity against mouse RAW264.7 cells. The format is functional.
Assay [6] concerns Mycobacterium tuberculosis. Description: Antibacterial activity against Mycobacterium tuberculosis. The format is functional.
In assay [7] the test system is Mycobacteroides abscessus. Description: Antibacterial activity against Mycobacterium abscessus CIP 104536T rough morphotype incubated for 1 to 14 days. The format is functional. The conditions noted are these: time 1-14 day.
Assay [8] has as its system Mycobacterium. The assay can be described thus: Antibacterial activity against Mycobacterium by REMA assay. The class given is functional.
Assay [9] concerns Mycobacteroides abscessus. Description: Antibacterial activity against Mycobacterium abscessus CIP 104536T smooth morphotype incubated for 1 to 14 days. The format is functional. As to conditions: time 1-14 day.
The subject of assay [10] is RAW264.7. Description: (§1) Antibacterial activity against Mycobacterium Mycobacterium abscessus CIP 104536T infected in mouse RAW264.7 cells assessed as […] incubated for 4 to 5 days. The format is functional. The conditions noted are these: Mycobacteroides abscessus, time 4-5 day.
Assay [11] in a line: as §1. The class given is functional. The conditions noted are these: Mycobacteroides abscessus, time 4-5 day.
The test system of assay [12] is Mycobacterium tuberculosis. Description: Antibacterial activity against Mycobacterium tuberculosis incubated for 2 to 3 weeks. The class given is functional. The conditions noted are these: time 2-3 weeks.
Assay [13] can be described thus: Antibacterial activity against Mycobacterium Mycobacterium abscessus CIP 104536T infected in mouse RAW264.7 cells assessed as bacterial viability at 30 uM incubated for 4 to 5 days relative to control. The format is functional, Mycobacteroides abscessus. As to conditions: time 4-5 day.

As to `CCCCCCCCCCCCOc1nn(-c2cccc(Oc3ccccc3)c2)c(=O)o1`, the inhibition came to 90.4% in assay [1] and 88.7% in assay [3]. In [2], the I50 was determined as 0.77 molar excess.
On to `CCCCCCCCCCC[C@@H](C[C@@H]1OC(=O)[C@H]1CCCCCC)OC(=O)[C@@H]1CCCN1C=O`, for which, in [4], half-maximal inhibition (IC50) required 0.2 µM.
For the molecule `CCCCCCCCOc1nn(-c2cccc(Oc3ccccc3)c2)c(=O)o1`, the inhibition in assay [1] came out at 86.6%; in assay [3], 83.2%. Also, the I50 in [2] amounted to 0.71 molar excess.
For `COCCOc1nn(-c2cccc(Oc3ccccc3)c2)c(=O)o1`, in that order: 93.7%, 92.4% and 0.69 molar excess.
Turning to `CCOc1nn(-c2cccc(Oc3ccccc3)c2)c(=O)o1`, the inhibition in assay [1] was 53.8%; in [3] it was 21.7%. In assay [2], the I50 was determined as 6.5 molar excess.
Take `CCCCCCCCCCCCCCCCO[P@]1(=O)OC[C@H]2COC(=O)C2=C(C)O1`: the CC50 in assay [5] is greater than 100 µM.
Consider `CCCCOc1nn(-c2cccc(Oc3ccccc3)c2)c(=O)o1`, for which the inhibition was 63.7% in assay [1] and 15.6% in assay [3]. The same molecule came in with an I50 in [2] greater than 40 molar excess.
With `O=c1oc(OCCOCc2ccccc2)nn1-c1ccc(Oc2ccccc2)cc1`, the inhibition is 98.4% in assay [1] and 97% in assay [3]. Moreover, the half-maximal cytotoxic concentration (CC50) in assay [5] was greater than 100 µM. Also, the I50 in assay [2] came out at 0.59 molar excess.
With `CC(C)COc1nn(-c2cccc(Oc3ccccc3)c2)c(=O)o1`, the inhibition was 49.4% in assay [1] and 37.4% in [3]. The I50 in assay [2] is 3.9 molar excess.
With `C=CCCCCCCC[C@H]1C(=O)O[C@@H]1CCCCCNC(=O)c1ccc(N(C)C)cc1`, the INH in [6] is 1.6 µM.
Turning to `CCCCCCCCCCCCCCCCO[P@]1(=O)OC[C@@H]2COC(=O)C2=C(C)O1`, in [5], the CC50 is greater than 100 µM.
On to `CCCCCCCCCCCCCCCCOP1(=O)OCCC(C(=O)OC)=C(C)O1` (stereo unspecified), for which the MIC50 in [7] is 0.37 µM (≈ 0.165 µg/mL); in assay [9], 12.7 µM (≈ 5.67 µg/mL); in assay [10], “NE”. Besides, 2 mg/L (≈ 4.48 µM) was the least that counted as inhibitory in assay [8] (MIC). The CC50 in [5] was greater than 100 µM.
As for `COc1nn(-c2ccc(Oc3ccccc3)cc2)c(=O)o1`, the inhibition in [1] worked out at 79.4%; in [3], 60.8%. Besides, the MIC50 is greater than 200 µM in [7], 88.2 µM (≈ 25.1 µg/mL) in assay [9] and 75.2 µM (≈ 21.4 µg/mL) in [11]. Also, in assay [2], the I50 amounted to 0.93 molar excess.
Turning to `CCCCCCCCCCC[C@@H](C[C@@H]1OC(=O)[C@H]1CCCCCC)OC(=O)[C@H](CC(C)C)NC=O` [ORLISTAT], the inhibition is 87.6% in [1] and 26.8% in assay [3]. This molecule also returned an I50 in assay [2] of 7.1 molar excess. Further, in assay [4], inhibition was half-maximal at 3.8 µM (IC50).
On to `CCCCCC(CC)Oc1nn(-c2cccc(Oc3ccccc3)c2)c(=O)o1` (stereo unspecified), for which the inhibition in assay [1] was determined as 94.8%; in assay [3], 89.6%. The same molecule returned an I50 in assay [2] of 0.73 molar excess.
Consider `CCCCCCCCCCC[C@@H](C[C@@H]1OC(=O)[C@H]1CCCCCC)OC(=O)[C@H]1CCCN1C(C)=O`, for which, in [4], the IC50 was found to be 0.2 µM.
With `CCCCCCOc1nn(-c2ccccc2)c(=O)o1`, the inhibition in [1] was 38.8%; in assay [3], 35%. For the same molecule, in assay [5], the CC50 was greater than 100 µM. For the same molecule, the I50 in assay [2] was greater than 40 molar excess.
Regarding `COc1nn(-c2cccc(Oc3ccccc3)c2)c(=O)o1`, in assay [12], the MIC is 50 µM (≈ 14.2 µg/mL). Moreover, the inhibition in assay [1] came to 85.9%; in assay [3], 63.6%. Also, in [2], the I50 was 2.4 molar excess.
For `COc1nn(-c2ccccc2)c(=O)o1`, the figures for the inhibition in assay [1] and in assay [3] were 81.8% and 34.4%, respectively. Moreover, the figures for the MIC50 in assay [7], in assay [9] and in assay [11] were greater than 200 µM, greater than 200 µM and 36.5 µM (≈ 7.01 µg/mL), respectively. In assay [2], this molecule registered an I50 of 10.9 molar excess.
With `CC(C)COc1nn(-c2ccc(Oc3ccccc3)cc2)c(=O)o1`, the inhibition is 41.6% in assay [1] and 33.8% in [3]. For the same molecule, the values for the MIC50 in assay [7], in assay [9] and in assay [11] were 53.2 µM (≈ 17.4 µg/mL), 33 µM (≈ 10.8 µg/mL) and less than 30 µM, respectively. Moreover, the Activity in [13] came out at 59%. In assay [5], this molecule showed a CC50 greater than 100 µM. In assay [2], this molecule yielded an I50 greater than 40 molar excess.
For the molecule `CCCCCCCCCCCC[C@@H]1CC[P@@](=O)(OC)OC(C)=C1C(=O)OC`, the MIC50 in [7] was greater than 100 µM; in assay [9], greater than 100 µM; in assay [11], 7.9 µM (≈ 3.18 µg/mL). In assay [5], this molecule yielded a CC50 greater than 100 µM.
Take `CO[C@H]1/C=C/O[C@@]2(C)Oc3c(C)c(O)c4c(O)c(c(/C=N/N5CCN(C)CC5)c(O)c4c3C2=O)NC(=O)/C(C)=C\C=C\[C@H](C)[C@H](O)[C@@H](C)[C@@H](O)[C@@H](C)[C@H](OC(C)=O)[C@@H]1C` [RIFAMPIN]: the CC50 in [5] came out at 24 µM.
Regarding `NCC[C@H](O)C(=O)N[C@@H]1C[C@H](N)[C@@H](O[C@H]2O[C@H](CN)[C@@H](O)[C@H](O)[C@H]2O)[C@H](O)[C@H]1O[C@H]1O[C@H](CO)[C@@H](O)[C@H](N)[C@H]1O` [AMIKACIN], the results for the MIC50 in assay [7] and in [9] were 7.4 µM (≈ 4.33 µg/mL) and 3.9 µM (≈ 2.28 µg/mL), respectively.
Consider `CCCCCCCCCCOc1nn(-c2cccc(Oc3ccccc3)c2)c(=O)o1`, for which the inhibition is 94.2% in assay [1] and 91.5% in [3]. In [2], the I50 stood at 0.67 molar excess.
For the molecule `CCCCCCCCCC[C@H]1CC[P@@](=O)(OC)OC(C)=C1C(=O)OC`, the MIC50 in assay [7] is greater than 100 µM; in assay [9] it was greater than 100 µM; in assay [11] it was 65.3 µM (≈ 24.5 µg/mL). In assay [5], this molecule returned a 50% cytotoxic concentration (CC50) greater than 100 µM.
`CCCCCCCCCC[C@@H]1CC[P@@](=O)(OC)OC(C)=C1C(=O)OC`: the MIC50 is greater than 100 µM in assay [7], greater than 100 µM in assay [9] and 29.3 µM (≈ 11 µg/mL) in assay [11]. The same molecule yielded a CC50 in [5] greater than 100 µM.
With `CCCCCCOc1nn(-c2cccc(Oc3ccccc3)c2)c(=O)o1`, the inhibition in assay [1] was determined as 76.5%; in assay [3], 39.9%. The same molecule registered an I50 in assay [2] of 3.3 molar excess.
With `CC(C)COc1nn(-c2ccccc2)c(=O)o1`, the inhibition in assay [1] stood at 47.9%; in assay [3], 31.6%. In addition, the CC50 in assay [5] was greater than 100 µM. In addition, in [2], the I50 is 9.2 molar excess.
In the case of `CCCCC[C@H]1CC[P@@](=O)(OC)OC(C)=C1C(=O)OC`, the CC50 in assay [5] was greater than 100 µM.
In the case of `CCCCCCCCCCC[C@@H](C[C@@H]1OC(=O)[C@H]1CCCCCC)OC(=O)[C@H]1CCCN1C=O`, inhibition in assay [4] was half-maximal at 0.2 µM (IC50).
The same measure, in the same setting: in the case of `CCCCCCCCCCC[C@@H](C[C@@H]1OC(=O)[C@H]1CCCCCC)OC(=O)[C@@H]1CCCN1C(C)=O` it was 0.2 µM.
`CCCCCCCCCCCC[C@H]1CC[P@@](=O)(OC)OC(C)=C1C(=O)OC`: the figures for the MIC50 in assay [7], in [9] and in assay [11] were greater than 100 µM, greater than 100 µM and 2 µM (≈ 0.805 µg/mL), respectively. Moreover, the CC50 in [5] was greater than 20 µM.
Take `CCCCCCOc1nn(-c2ccc(Oc3ccccc3)cc2)c(=O)o1`: the inhibition came out at 77.2% in [1] and 38.7% in [3]. The molecule also displayed a CC50 in [5] greater than 100 µM. The molecule further had an I50 in assay [2] of 2.9 molar excess.
As to `O=c1oc(OCCOCc2ccccc2)nn1-c1ccccc1`, the inhibition worked out at 92.2% in assay [1] and 89% in assay [3]. The molecule further returned a CC50 in assay [5] greater than 100 µM. In [2], this molecule had an I50 of 0.61 molar excess.
Regarding `CCCCCCCCCCC1=C(C(=O)OC)CCOP(=O)(OC)O1` (stereo unspecified), the MIC50 in assay [7] was 13.9 µM (≈ 5.04 µg/mL); in [9], 85 µM (≈ 30.8 µg/mL); in assay [10] it was “NE”.
For `CCCCCCCCCCCCCCCCC1=C(C(=O)OC)CCOP(=O)(OC)O1` (stereo unspecified), in that order: 6.9 µM (≈ 3.08 µg/mL), 60 µM (≈ 26.8 µg/mL) and “NE”.
The molecule `NNC(=O)c1ccncc1` [ISONIAZID] yielded a CC50 in assay [5] greater than 150 µM.
Regarding `C[C@@H](O)[C@H]1C(=O)N2C(C(=O)O)=C(SCCNC=N)C[C@H]12` [IMIPENEM ANHYDROUS], the MIC50 in assay [7] is 29.9 µM (≈ 8.95 µg/mL); in assay [9], 11.3 µM (≈ 3.38 µg/mL); in assay [11], 28.3 µM (≈ 8.47 µg/mL).
Consider `O=c1oc(OCCOCc2ccccc2)nn1-c1cccc(Oc2ccccc2)c1`, for which the inhibition was 90.2% in assay [1] and 88% in assay [3]. In [2], the I50 is 0.72 molar excess.
In assay [4], `CCCCCCCCCCC[C@@H](C[C@@H]1OC(=O)[C@H]1CCCCCC)OC(=O)[C@@H]1CSCN1C(C)=O` gave an IC50 of 0.2 µM.

The record behind these values is ChEMBL document CHEMBL5113371, “Lipolytic enzymes inhibitors: A new way for antibacterial drugs discovery” (Eur J Med Chem, 2021).
